{"source": "patent US9393316B2", "about": "“Cancer targeting peptides for enhancing anti-cancer drug delivery and therapeutic efficiencies” (priority 2014, dated 2016)", "key": {"COLO205": {"test_system": "COLO205", "experiment": "Flow cytometry surface binding of phage clones", "parameters": "species or system human", "experimental": "(§1) Cells were grown to 70-80% confluence and were harvested with 10 mM EDTA in PBS. Peripheral blood mononuclear cells were prepared by using Ficoll-Paque Plus density gradient separation. After washing and suspending the cells with FACS buffer (PBS containing 1% fetal bovine serum), the cells were incubated for 1 hr at 4° C. with 5×10^9, 1×10^9 cfu individual phage clones or control phage, respectively. After washing twice with FACS buffer, cells were incubated with mouse anti-M13 monoclonal antibody (GE Healthcare) at 1:2000 dilution for 1 hr followed by 30 min with phycoerythrin (PE)-conjugated goat anti-mouse secondary antibody (Jackson ImmunoResearch) at 1:250 dilution at 4° C. The emission fluorescence signals were measured using FACSCantoll (Becton Dickinson) and were analyzed by FlowJo software."}, "HCT116 cells": {"test_system": "HCT116 cells", "experiment": "Flow cytometry surface binding of phage clones", "parameters": "species or system human", "experimental": "as §1"}, "HT29": {"test_system": "HT29", "experiment": "Flow cytometry surface binding of phage clones", "parameters": "species or system human", "experimental": "as §1"}, "LS174T": {"test_system": "LS174T", "experiment": "Flow cytometry surface binding of phage clones", "parameters": "species or system human", "experimental": "as §1"}, "SW620": {"test_system": "SW620", "experiment": "Flow cytometry surface binding of phage clones", "parameters": "species or system human", "experimental": "as §1"}, "HCT116 xenografts": {"test_system": "HCT116 xenografts", "experiment": "Immunohistochemical localization of phages in xenograft tumor and organs", "assay_type": "in vivo, mice", "details": "tumor vs brain, heart, lungs, colon", "experimental": "The tissue samples from in vivo phage homing experiment were embedded in frozen blocks. To evaluate the phage distribution in each tissue by immunohistochemistry, the frozen specimens were cut to 8-μm-thick sections and were collected on coated slides. The slides were washed with cold PBS to remove OCT and were fixed with 4% paraformaldehyde for 10 min at RT. To block endogenous peroxidase activity, the slides were soaked with 3% hydrogen peroxide in methanol for 30 min at RT. The nonspecific antibody binding sites were blocked by immersing the section with 1% BSA in PBS for 30 min at RT. The tissue sections were incubated with mouse anti-M13 monoclonal antibody at 1:250 dilution for 1 hr, followed by adding Super Enhancer reagent (Super SENSITIVE™ Polymer HRP Detection System/DAB, BioGenex) for 20 min and Poly-HRP reagent (BioGenex) for 30 min. After washing, the sections were developed with DAB (3,3′-diaminobenzidine) Chromogen (BioGenex) supplemented with Stable DAB buffer. The reaction was stopped by adding PBS. For nuclei staining, the slides were immersed in hematoxylin for 5 min, and were then mounted with mounting solution to terminate the reaction. The images of sections were taken and analyzed using automated acquisition system (TissueGnostics)."}, "1112SK": {"test_system": "1112SK", "experiment": "Cellular ELISA of phage clones", "assay_type": "binding, human", "experimental": "(§2) The selected phages were further identified by ELISA screening. 1×10^4 cells were seeded into each well of 96-well ELISA plates (Falcon, Calif., USA) overnight and were fixed with 2% paraformaldehyde or methanol/acetone (1:1) for 10 min at RT. The plates were washed twice with PBS and were blocked with 1% BSA in PBS (w/v) for 30 min at RT. Then individual phage clones were added and incubated for 1 hr at RT. Following washing three times with PBS, the plates were incubated with horseradish peroxidase (HRP)-conjugated mouse anti-M13 phage antibody (GE Healthcare) at 1:2000 dilution for 1 hr at RT. The plates were washed three times with PBS again, and were subsequently incubated with the peroxidase substrate o-phenylenediamine dihydrochloride (OPD; Sigma) plus H2O2. The reaction was terminated by 3 N HCl, and the absorbance was measured using microplate reader (Model 680, BioRad) at 490 nm. To evaluate the binding activities of the three selected phage clones to various human cancer cell lines, cellular ELISA was performed to detect sixteen types of human cancer cell lines, including A498, HTB-10, B16-F10, SKOV3, PC-3, U2OS, 1112SK, […], SAS, H460, MIA Paca-2, HCT116, HUVAC, CL1-5, Mahlavu, and MDA-MB-231."}, "A498": {"test_system": "A498", "experiment": "Cellular ELISA of phage clones", "assay_type": "binding, human", "experimental": "as §2"}, "CL1-5": {"test_system": "CL1-5", "experiment": "Cellular ELISA of phage clones", "assay_type": "binding, human", "experimental": "as §2"}, "H460": {"test_system": "H460", "experiment": "Cellular ELISA of phage clones", "assay_type": "binding, human", "experimental": "as §2"}, "HTB-10": {"test_system": "HTB-10", "experiment": "Cellular ELISA of phage clones", "assay_type": "binding, human", "experimental": "as §2"}, "MDA-MB-231": {"test_system": "MDA-MB-231", "experiment": "Cellular ELISA of phage clones", "assay_type": "binding, human", "experimental": "as §2"}, "MIA Paca-2": {"test_system": "MIA Paca-2", "experiment": "Cellular ELISA of phage clones", "assay_type": "binding, human", "experimental": "as §2"}, "Mahlavu": {"test_system": "Mahlavu", "experiment": "Cellular ELISA of phage clones", "assay_type": "binding, human", "experimental": "as §2"}, "SKOV3": {"test_system": "SKOV3", "experiment": "Cellular ELISA of phage clones", "assay_type": "binding, human", "experimental": "as §2"}, "U2OS": {"test_system": "U2OS", "experiment": "Cellular ELISA of phage clones", "assay_type": "binding, human", "experimental": "as §2"}}}
{"sequence": "SSMDIVLRAPLM [HCT74]", "values": [{"measurement": "binding activity by FACS", "setting": "COLO205", "result": "weak affinity"}, {"measurement": "cell surface-binding activity by flow cytometry", "setting": "HCT116 cells", "result": "high binding affinity"}, {"measurement": "binding activity by FACS", "setting": "HT29", "result": "high binding affinity"}, {"measurement": "binding activity by FACS", "setting": "LS174T", "result": "moderate affinity"}, {"measurement": "binding activity by FACS", "setting": "SW620", "result": "high binding affinity"}, {"measurement": "phage localization by immunostaining of tissue sections", "setting": "HCT116 xenografts", "result": "selectively localized in tumor tissues"}, {"measurement": "phage localization by immunostaining of tissue sections", "setting": "HCT116 xenografts; listed as HCT-74", "result": "strong accumulated in the tumor"}, {"measurement": "binding by cellular ELISA", "setting": "1112SK", "result": "highly specific binding"}, {"measurement": "binding by cellular ELISA", "setting": "A498", "result": "highly specific binding"}, {"measurement": "binding by cellular ELISA", "setting": "CL1-5", "result": "moderate binding"}, {"measurement": "binding by cellular ELISA", "setting": "H460", "result": "highly specific binding"}, {"measurement": "binding by cellular ELISA", "setting": "HTB-10", "result": "moderate binding"}, {"measurement": "binding by cellular ELISA", "setting": "MDA-MB-231", "result": "highly specific binding"}, {"measurement": "binding by cellular ELISA", "setting": "MIA Paca-2", "result": "highly specific binding"}, {"measurement": "binding by cellular ELISA", "setting": "Mahlavu", "result": "highly specific binding"}, {"measurement": "binding by cellular ELISA", "setting": "SKOV3", "result": "highly specific binding"}, {"measurement": "binding by cellular ELISA", "setting": "U2OS", "result": "highly specific binding"}]}
